Legend:
Sporobolomyces odorus [1] = assay: Biomass production (OD at 620 nm) of S. odorus cultures on distilling slops with added precursor or additives; format: cell-based; settings: for Biomass (OD at 620 nm): culture period of 77 hours; for OD at 620 nm: measured after 77 hours, 0 ml: 8.74; for OD620: HNCH 5 g/vial, culture period of 150 hours
Experimental: During these culture processes, performed in a liquid medium, temperature was held at 24° C. and stirring was at 250 rpm (revolutions per minute).
Time dependency of the amount of biomass produced during cultivation of this yeast, was tracked by measuring the optical density (OD) of the cell suspension at 620 nm. On the spectrophotometer, 0 was obtained with a sample of pure medium (baseline).
In order to test the effect of adding methyl ricinoleate to cultures of S. odorus on distilling slops exclusively, 1 ml of this precursor was added to cellular suspensions of 60 ml of 24 hours of age. […] Indeed, instead of a final concentration, after 77 hours, of 1.02 mg/l on distilling slops or of 6.47 mg/l when castor oil was added, we obtained concentrations of 28.23 mg/l (FIG. 8). […] So it would become rapidly a limiting factor in obtaining free ricinoleic acid from castor oil. Adding directly usable methyl ricinoleate overcomes this problem and lactone production yields are improved.
In order to optimize the added amount of methyl ricinoleate, we produced cultures to which we added after 24 hours either 0.83%, or 1.66%, or 10% (v/v) of methyl ricinoleate.
Additions of RM were performed at instants t=0, 24, 48 and 72 hours. These cultures were produced in 250 ml erlenmeyers containing 5 g of HNCH and 60 ml of sown distilling slops at an initial yeast cell density of 0.2 units of OD620 (optical density measured at 620 nm).
With the aim of increasing the productivity of the system by implementing an in situ extraction of γ-decalactone, two series of tests were conducted; one at an initial cell density of 0.2 (control), the other at an initial cell density of 4.

Sporobolomyces odorus [2] = assay: Toxicity of γ-decalactone: yeast growth kinetics on distilling slop medium containing lactone; format: cell-based
Experimental: Time dependency of the amount of biomass produced during cultivation of this yeast, was tracked by measuring the optical density (OD) of the cell suspension at 620 nm. On the spectrophotometer, 0 was obtained with a sample of pure medium (baseline). In order to determine whether γ-decalactone is toxic for cells, yeast growth kinetics on a distilling slop medium containing either 50 mg/l or 250 mg/l of lactone were obtained (FIG. 11). […] Beyond this point, a shift was observed. […] Indeed, the maximum achieved OD was 4 instead of 15 in the control. This same phenomenon was already observed by Ferron and al. (1996) who determined that the compatible dose with a non-zero cell growth rate is between 100 and 200 mg/l. This would partly explain why lactone concentrations of 250 to 300 mg/l were not exceeded under the retained experimental conditions.

SMILES	Biomass (OD at 620 nm) (Sporobolomyces odorus [1]; 0.06% at t = 0 hrs + 0.83% at t = 24 hrs)	OD at 620 nm (Sporobolomyces odorus [1]; 0.5 ml RM added to 60 ml culture after 24 hours)	Biomass (OD at 620 nm) (Sporobolomyces odorus [1]; 0.83% v/v at t = 24 hrs)	OD at 620 nm (Sporobolomyces odorus [1]; 1 ml RM added to 60 ml culture after 24 hours)	biomass, OD (Sporobolomyces odorus [1]; 1 ml added to 60 ml cultures of 24 hours of age, after 77 hours, 14.0 on distilling slops exclusively)	OD620 (Sporobolomyces odorus [1]; 4×0.03, 0.06 or 0.12% (v/v) of precursor)	OD620 (Sporobolomyces odorus [1]; 4×0.18% (v/v) of precursor)	OD at 620 nm (Sporobolomyces odorus [1]; 6 ml RM added to 60 ml culture after 24 hours)	effect on the yeast's growth (Sporobolomyces odorus [2]; 50 mg/l lactone in distilling slop medium, first 50 hours of culture)	microorganism growth (Sporobolomyces odorus [2]; 250 mg of lactone in distilling slop medium)	maximum achieved OD (Sporobolomyces odorus [2]; 250 mg of lactone, control 15)	toxicity exerted on yeast above (concentration) (Sporobolomyces odorus [2]; statement in section C 1.1)	toxic effect observed beyond (concentration) (Sporobolomyces odorus [2]; summary statement of section 6) [mg/L]
CCCCCC[C@@H](O)C/C=C\CCCCCCCC(=O)OC [methyl ricinoleate]	8.4	8.00	8.0	7.94	11.06	8	15	8.98	–	–	–	–	–
CCCCCCC1CCC(=O)O1 (stereo not shown) [γ-decalactone]	–	–	–	–	–	–	–	–	did not affect the yeast's growth	significantly reduced	4	above 150 mg/l	> 250

— US6518050B1, “Process for producing and extracting aromatic compounds” (Revico, priority 1998, dated 2003)
